Assay results: ChEMBL document CHEMBL6114997, “New curcumin derivative induces ferroptosis in MCF-7 cells through activating SLC7A11/GPX4 axis” (Bioorg Med Chem, 2025)
Calls of active or inactive are those of the source. The rule behind the calls is not given here.

Assays:
HeLa = assay: Antiproliferative activity against human HeLa cells assessed as inhibition of cell growth by MTT assay; type: functional, cell-based
A549 = assay: Antiproliferative activity against human A549 cells assessed as inhibition of cell growth by MTT assay; type: functional, cell-based
MCF7 [1] = assay: Antiproliferative activity against human MCF7 cells assessed as inhibition of cell growth by MTT assay; type: functional, cell-based
HT-29 = assay: Antiproliferative activity against human HT-29 cells assessed as inhibition of cell growth by MTT assay; type: functional, cell-based
HepG2 = assay: Antiproliferative activity against human HepG2 cells assessed as inhibition of cell growth by MTT assay; type: functional, cell-based
[2] = Potency index, ratio of cisplatin IC50 to test compound IC50 for antiproliferative activity against human HeLa cells assessed as inhibition of cell growth by MTT assay; type: functional
[3] = Potency index, ratio of cisplatin IC50 to test compound IC50 for antiproliferative activity against human A549 cells assessed as inhibition of cell growth by MTT assay; type: functional
[4] = Potency index, ratio of cisplatin IC50 to test compound IC50 for antiproliferative activity against human MCF7 cells assessed as inhibition of cell growth by MTT assay; type: functional
[5] = Potency index, ratio of cisplatin IC50 to test compound IC50 for antiproliferative activity against human HT-29 cells assessed as inhibition of cell growth by MTT assay; type: functional
[6] = Potency index, ratio of cisplatin IC50 to test compound IC50 for antiproliferative activity against human HepG2 cells assessed as inhibition of cell growth by MTT assay; type: functional
MCF7 [7] = assay: Induction of intracellular ROS level in human MCF7 cells at 1.5 uM incubated for 24 hrs by DCFH-DA staining based fluorescence microscopic analysis (reference value: 4.66%); type: functional
MCF7 [8] = assay: Induction of intracellular ROS level in human MCF7 cells at 3.0 uM incubated for 24 hrs by DCFH-DA staining based fluorescence microscopic analysis (reference value: 4.66%); type: functional
MCF7 [9] = assay: Induction of intracellular ROS level in human MCF7 cells incubated for 24 hrs by DCFH-DA staining based fluorescence microscopic analysis; type: functional, cell-based; conditions: dose 1.5-3 µM
MCF7 [10] = assay: Induction of ferroptosis in human MCF7 cells assessed as increase in intracellular ferrous ion level by measuring increase in fluorescence at 1.5 to 3.0 micromol/L incubated for 24 hrs by ferroOrange probe based fluorescence microscopic analysis; type: functional, cell-based; conditions: dose 1.5-3 µmol/L
MCF7 [11] = assay: Induction of ferroptosis in human MCF7 cells assessed as increase in MDA level at 1.5 micromol/L measured after 24 hrs by absorbance based analysis (reference value: 0.42 micromol/L); type: functional; conditions: dose 1.5 µmol/L
MCF7 [12] = assay: Induction of ferroptosis in human MCF7 cells assessed as increase in MDA level at 3.0 micromol/L measured after 24 hrs by absorbance based analysis (reference value: 0.42 micromol/L); type: functional; conditions: dose 3 µmol/L
MCF7 [13] = assay: Induction of ferroptosis in human MCF7 cells assessed as decrease in GPX4 activity at 1.5 to 3.0 micromol/L by absorbance based analysis (reference value: 5.90 mU/mg); type: functional; conditions: dose 1.5-3 µmol/L
MCF7 [14] = assay: Induction of ferroptosis in human MCF7 cells assessed as decrease in SLC7A11 to GAPDH ratio at 1.5 to 3.0 micromol/L incubated for 24 hrs by Western blot analysis; type: functional, cell-based; conditions: dose 1.5-3 µmol/L
MCF7 [15] = assay: Induction of ferroptosis in human MCF7 cells assessed as decrease in GPX4 to beta-actin ratio at 1.5 to 3.0 micromol/L incubated for 24 hrs by Western blot analysis; type: functional, cell-based; conditions: dose 1.5-3 µmol/L
MCF7 [16] = assay: Induction of ferroptosis in human MCF7 cells assessed as change in GPX4 expression incubated for 24 hrs by Western blot analysis; type: functional, cell-based; conditions: dose 1.5-3 µmol/L
[17] = Antioxidant activity assessed as DPPH radical scavenging activity incubated for 30 mins in dark by absorbance based analysis; type: functional

SMILES | IC50 (HeLa) [µM] | IC50 (A549) [µM] | IC50 (MCF7 [1]) [µM] | IC50 (HT-29) [µM] | IC50 (HepG2) [µM] | also measured
COc1cc(/C=C/C(=O)C(=Cc2cccs2)C(=O)/C=C/c2ccc(OCCO[N+](=O)[O-])c(OC)c2)ccc1OCCO[N+](=O)[O-] | 6.78 | 1.03 | 1.39 | 1.45 | 1.21 | Ratio IC50 [2]: >=2; Ratio IC50 [3]: >=2; Ratio IC50 [4]: >=2; Ratio IC50 [5]: >=2; Ratio IC50 [6]: >=2; Activity (MCF7 [7]): 12.5%; Activity (MCF7 [8]): 60.7%; Activity (MCF7 [9]): Dose-dependent-effect; Activity (MCF7 [10]): Active; Activity (MCF7 [11]): 0.84 µmol/L; Activity (MCF7 [12]): 1.25 µmol/L; Activity (MCF7 [13]): 3.52 mU/mg; Activity (MCF7 [14]): Active; Activity (MCF7 [15]): Active; Activity (MCF7 [16]): Dose-dependent-effect
COc1cc(/C=C/c2cc(/C=C/c3ccc(OCCCO[N+](=O)[O-])c(OC)c3)n(-c3ccccc3F)n2)ccc1OCCCO[N+](=O)[O-] | > 50 | > 50 | > 50 | > 50 | > 50 | 
COc1cc(/C=C/c2cc(/C=C/c3ccc(OCCCO[N+](=O)[O-])c(OC)c3)n(-c3ccccc3)n2)ccc1OCCCO[N+](=O)[O-] | > 50 | > 50 | > 50 | > 50 | > 50 | 
COc1cc(/C=C/c2cc(/C=C/c3ccc(OCCCO[N+](=O)[O-])c(OC)c3)n(-c3ccc(C(F)(F)F)cc3)n2)ccc1OCCCO[N+](=O)[O-] | > 50 | > 50 | > 50 | > 50 | > 50 | 
COc1cc(/C=C/C(=O)C(=Cc2ccco2)C(=O)/C=C/c2ccc(OCCCO[N+](=O)[O-])c(OC)c2)ccc1OCCCO[N+](=O)[O-] | 7.6 | 2.06 | 3.66 | 2.5 | 1.74 | Activity [17]: Weak_effect; Compound Showed Weak Effect Compared With Vitamin C
COc1cc(/C=C/C(=O)CC(=O)/C=C/c2ccc(O)c(OC)c2)ccc1O [CURCUMIN] | > 50 | 24.6 | 19.9 | 22.9 | > 50 | 
COc1cc(/C=C/c2cc(/C=C/c3ccc(OCCO[N+](=O)[O-])c(OC)c3)n(-c3ccc(F)cc3)n2)ccc1OCCO[N+](=O)[O-] | > 50 | > 50 | > 50 | > 50 | > 50 | 
COc1cc(/C=C/c2cc(/C=C/c3ccc(OCCO[N+](=O)[O-])c(OC)c3)n(-c3ccc(C(F)(F)F)cc3)n2)ccc1OCCO[N+](=O)[O-] | > 50 | > 50 | > 50 | > 50 | > 50 | 
COc1cc(/C=C/c2cc(/C=C/c3ccc(OCCCO[N+](=O)[O-])c(OC)c3)n(-c3ccccn3)n2)ccc1OCCCO[N+](=O)[O-] | > 50 | > 50 | > 50 | > 50 | > 50 | 
COc1cc(/C=C/c2cc(/C=C/c3ccc(OCCCCO[N+](=O)[O-])c(OC)c3)n(-c3ccc(C(F)(F)F)cc3)n2)ccc1OCCCCO[N+](=O)[O-] | > 50 | > 50 | > 50 | > 50 | > 50 | 
COc1cc(/C=C/c2cc(/C=C/c3ccc(OCCCCO[N+](=O)[O-])c(OC)c3)n(-c3ccc(F)cc3)n2)ccc1OCCCCO[N+](=O)[O-] | > 50 | > 50 | > 50 | > 50 | > 50 | 
COc1cc(/C=C/c2cc(/C=C/c3ccc(OCC4CC4)c(OC)c3)n(-c3ccc(C(=O)OCCCCO[N+](=O)[O-])cc3)n2)ccc1OCC1CC1 | > 50 | > 50 | > 50 | > 50 | > 50 | 
COc1cc(/C=C/C(=O)C(=Cc2cccs2)C(=O)/C=C/c2ccc(OCCCO[N+](=O)[O-])c(OC)c2)ccc1OCCCO[N+](=O)[O-] | 20.5 | 1.27 | 2.4 | 1.81 | 1.44 | Activity [17]: Weak_effect; Compound Showed Weak Effect Compared With Vitamin C
COc1cc(/C=C/c2cc(/C=C/c3ccc(OCCCO[N+](=O)[O-])c(OC)c3)n(-c3ccc(F)cc3)n2)ccc1OCCCO[N+](=O)[O-] | > 50 | > 50 | > 50 | > 50 | > 50 | 
COc1cc(/C=C/C(=O)C(=Cc2cccs2)C(=O)/C=C/c2ccc(OCCCCO[N+](=O)[O-])c(OC)c2)ccc1OCCCCO[N+](=O)[O-] | > 50 | 7.24 | 18.4 | 10.2 | 2.22 | Activity [17]: Weak_effect; Compound Showed Weak Effect Compared With Vitamin C
COc1cc(/C=C/c2cc(/C=C/c3ccc(OCCO[N+](=O)[O-])c(OC)c3)n(Cc3ccccc3)n2)ccc1OCCO[N+](=O)[O-] | > 50 | > 50 | > 50 | > 50 | > 50 | 
COc1cc(/C=C/c2cc(/C=C/c3ccc(OCCCCO[N+](=O)[O-])c(OC)c3)n(Cc3ccccc3)n2)ccc1OCCCCO[N+](=O)[O-] | > 50 | > 50 | > 50 | > 50 | > 50 | 
COc1cc(/C=C/c2cc(/C=C/c3ccc(OCCO[N+](=O)[O-])c(OC)c3)n(-c3ccccc3F)n2)ccc1OCCO[N+](=O)[O-] | > 50 | > 50 | > 50 | > 50 | > 50 | 
COc1cc(/C=C/c2cc(/C=C/c3ccc(OCCCO[N+](=O)[O-])c(OC)c3)n(Cc3ccccc3)n2)ccc1OCCCO[N+](=O)[O-] | > 50 | > 50 | > 50 | > 50 | > 50 | 
COc1cc(/C=C/c2cc(/C=C/c3ccc(OCC4CC4)c(OC)c3)n(-c3ccc(C(=O)OCCCO[N+](=O)[O-])cc3)n2)ccc1OCC1CC1 | > 50 | > 50 | > 50 | > 50 | > 50 | 
COc1cc(/C=C/C(=O)C(=Cc2ccco2)C(=O)/C=C/c2ccc(OCCO[N+](=O)[O-])c(OC)c2)ccc1OCCO[N+](=O)[O-] | 14.2 | 0.8 | 2.32 | 1.28 | 1.61 | Activity [17]: Weak_effect; Compound Showed Weak Effect Compared With Vitamin C
COc1cc(/C=C/c2cc(/C=C/c3ccc(OCCCCO[N+](=O)[O-])c(OC)c3)n(-c3ccccn3)n2)ccc1OCCCCO[N+](=O)[O-] | > 50 | > 50 | > 50 | > 50 | > 50 | 
COc1cc(/C=C/c2cc(/C=C/c3ccc(OCCO[N+](=O)[O-])c(OC)c3)n(-c3ccccc3)n2)ccc1OCCO[N+](=O)[O-] | > 50 | > 50 | > 50 | > 50 | > 50 | 
COc1cc(/C=C/c2cc(/C=C/c3ccc(OCCCCO[N+](=O)[O-])c(OC)c3)n(-c3ccccc3F)n2)ccc1OCCCCO[N+](=O)[O-] | > 50 | > 50 | > 50 | > 50 | > 50 | 
COc1cc(/C=C/C(=O)C(=Cc2ccco2)C(=O)/C=C/c2ccc(OCCCCO[N+](=O)[O-])c(OC)c2)ccc1OCCCCO[N+](=O)[O-] | 16.2 | 2.91 | 11.3 | 4.6 | 2.12 | Activity [17]: Weak_effect; Compound Showed Weak Effect Compared With Vitamin C
COc1cc(/C=C/c2cc(/C=C/c3ccc(OCCCCO[N+](=O)[O-])c(OC)c3)n(-c3ccccc3)n2)ccc1OCCCCO[N+](=O)[O-] | > 50 | > 50 | > 50 | > 50 | > 50 | 
